Laboratory results taken from patent publication US20200306295A1, “METHOD AND DEVICE FOR ANNIHILATION OF Staphylococcus aureus” (priority 2017, published 2020).
Converted amounts (≈) assume the structure as drawn.

Experiments:
[1] = test system: MRSA USA300; assay: In vivo mice skin infection model (daptomycin, pulsed laser); design: species or system BALB/c mice
Procedure: The in vivo mice experiment was conducted following protocols approved by Boston University Animal Care and Use Committee (BUACUC). To initiate the formation of a skin wound, five groups (N=5) of eight-week-old female BALB/c mice (obtained from the Jackson Laboratory, ME, USA) were disinfected with ethanol (70%) and shaved on the middle of their back (approximately a one-inch by one-inch square region around the injection site) one day prior to infection as described from a reported procedure^45. To prepare the bacterial inoculum, an aliquot of overnight culture of MRSA USA300 was transferred to fresh TSB and shaken at 37° C. until an OD600 value of ˜1.0 was achieved. The cells were centrifuged, washed once with 1×PBS, re-centrifuged, and then re-suspended in 1×PBS. Mice subsequently received an intradermal injection (40 μl) containing ˜10^9 CFU/ml MRSA USA300. An open wound formed at the site of injection for each mouse, ˜48 hours post-infection. Topical treatment was initiated subsequently with each group of mice receiving the following: daptomycin (1%, using glycerol as the vehicle), pulsed laser (1 cm diameter illumination area, 10 min treatment time, 120 mW), or a combination of pulsed laser and daptomycin. One group of mice was left as the control. […] Data were analyzed via an unpaired t-test, utilizing Origin 2019b (OriginLab Corporation).

[2] = test system: MRSA NRS384 (MRSA USA 300); assay: MIC by standard broth-dilution method; format: cell-based, S. aureus; settings: Staphylococcus aureus; MRSA NRS384 (MRSA USA 300); N = 3; read-out: MIC
From the text: (§1) For each measurement, three independent replicates were applied.

[3] = test system: VRSA and multidrug-resistant MRSA clinical isolates; assay: Time-killing assay on resistant clinical isolates; format: cell-based, S. aureus; settings: 10 MIC daptomycin and laser treatment
Procedure: (§2) To quantify viable bacterial cells, CFU experiments were performed. 100 μl of sample analyte was transferred into a 96-well plate and then three or four ten-fold serial dilution achieved by transferring 20 μl bacterial culture into 180 μl 1×PBS in the next dilution row. After serial dilution, an aliquot (4 μl) from each well was spotted onto sterile TSA plates. After incubating the plates overnight (˜18 hours) at 37° C., the colonies were enumerated, and cell number was calculated in CFU/ml. For each CFU enumeration experiment, three independent replicates were applied.
Stationary-phase MRSA was prepared, washed and resuspended in 1×PBS at two-times of its original concentration. […] After laser treatment, the droplets were resuspended into 200 μl of 1×PBS (1:40 dilution) supplemented with antibiotics at different concentrations in a mini centrifuge tube (89166-278, VWR international). For example, daptomycin was added into MRSA solution after laser treatment at desired concentration of 0×MIC, 5×MIC, 10×MIC, 30×MIC, or 100×MIC supplemented with 50 μg/ml CaCl2). Corresponding groups without laser treatment were also conducted for comparison. These tubes were incubated within an orbital incubator (37° C., 200 rpm) for different incubation time. At each specific time point, 40 μl of aliquot from each group was transferred to a 96-well plate for follow-up CFU enumerating assay. […]

[4] = test system: stationary-phase MRSA; assay: Daptomycin-BODIPY membrane insertion assay; format: cell-based, S. aureus; settings: daptomycin labeled with BODIPY
Procedure: To study how the membrane fluidity change affects the insertion of membrane-targeting antibiotics, we applied daptomycin-BODIPY membrane insertion assay detailed as below. Firstly, we conjugated daptomycin with a fluorescent dye, BODIPY STP ester (B10006, Thermo Fisher Scientific). Briefly, 10 mg of daptomycin (103060-53-3, Acros Organics) was dissolved into 1 ml of 0.1 M sodium bicarbonate solution. Then 100 μl of BODIPY STP ester (B10006, Thermo Fisher Scientific, stock: 1 mg/ml in DMSO) was added to the daptomycin solution drop by drop. Then the mixed solution reacted under stirring at room temperature for 1 hour. Afterwards, the solution was under overnight dialysis against extensive 0.1 M sodium bicarbonate solution. After dialysis, the mixed solution was lyophilized. […] After treatment, bacterial droplets were collected into 985 μl of sterile pre-warned TSB medium containing 150 μg/ml of CaCl2. 10 μl of daptomycin-BODIPY (stock: 3 mg/ml in 1×PBS) was added to the above solution, and incubated for 30 min at 37° C. […] Confocal laser scanning microscope (FV3000, Olympus) was conducted to quantify daptomycin-BODIPY distribution and its signal intensity at an excitation wavelength of 488 nm. Quantitative analysis of the signal from individual MRSA cells was performed among groups with different laser treatment time.

[5] = test system: stationary-phase MRSA; assay: Time-killing assay in PBS with or without pulsed laser (CFU enumeration); format: cell-based, S. aureus; settings: after 6 hours in PBS
Procedure: as §2
Stationary-phase MRSA was prepared, washed and resuspended in 1×PBS at two-times of its original concentration. […] After laser treatment, the droplets were resuspended into 200 μl of 1×PBS (1:40 dilution) supplemented with antibiotics at different concentrations in a mini centrifuge tube (89166-278, VWR international). For example, daptomycin was added into MRSA solution after laser treatment at desired concentration of 0×MIC, 5×MIC, 10×MIC, 30×MIC, or 100×MIC supplemented with 50 μg/ml CaCl2). Corresponding groups without laser treatment were also conducted for comparison. These tubes were incubated within an orbital incubator (37° C., 200 rpm) for different incubation time. At each specific time point, 40 μl of aliquot from each group was transferred to a 96-well plate for follow-up CFU enumerating assay. In the case of tobramycin, additional antibiotic washing by 1×PBS was performed before the CFU experiment to avoid antibiotic interference. For time-killing assay in fresh human whole blood, similar protocol was followed as above, except that 1×PBS was replaced by fresh human whole blood and the initial stationary-phase MRSA solution was diluted by ten times with a concentration of ˜10^7 CFU/ml.

[6] = test system: stationary-phase MRSA; format: cell-based, S. aureus; settings: checkerboard assay, MRSA growth inhibition
Procedure: To monitor the response of bacteria to laser treatment alone, antibiotic treatment alone, or their combinations, bacterial growth was continuously monitored overnight (18 hours with an interval of 30 min at 37° C.) by measuring optical density at 600 nm (OD600). Depending on the specific assay applied, the bacterial cells were suspended in 100 or 200 μl TSB medium under different treatment schemes (antibiotic alone, laser treatment alone, antibiotic plus laser treatment) with a final concentration of ˜10^5 CFU/ml. Bacterial growth was defined as OD600≥0.1.
Stationary-phase bacterial cells was washed and resuspended in 1×PBS at its original concentration. […] The treated droplet was collected and resuspended into 5 ml TSB (1:1000 dilution) for each group. Corresponding groups without laser treatment were also conducted for comparison. The bacterial suspensions were transferred to a 96-well plate with antibiotics supplemented into with the first row of the 96-well plate for eight two-fold serial dilution starting at a desired antibiotic concentration (e.g. ofloxacin: 2 μg/ml). After serial dilution, bacterial growth within the same well plate was monitored by a plate reader for 18 hours (OD600, 37° C.). The checkerboard assay was used for groups with laser treatment alone or laser plus antibiotic treatment. Two independent experiments of checkerboard assay were performed for each antibiotic with or without laser treatment. Based on the readout of OD600, a heat map was created to evaluate the antibiotic potentiation or synergistic effect enabled by STX photolysis.
Based on the checkerboard results, the fractional inhibitory concentration index (FICI), a synergy evaluation method between two antibiotics, was calculated as below: FICI=MIC of antibiotic A in combination/MIC of antibiotic A alone+MIC of antibiotic B in combination/MIC of antibiotic B alone. The interaction of the two antibiotics was defined as below: synergy if FICI≤0.5, no interaction if 0.5<FICI≤4, antagonism if FICI>4^46. […] Considering this reason, the synergy calculation was simplified as below: FICI=MIC of antibiotic A in combination with laser treatment/MIC of antibiotic A alone with synergy defined by FICI≤0.5.

[7] = test system: VRSA NR-46419 (VRSA 9); assay: MIC by standard broth-dilution method; format: cell-based, S. aureus; settings: Staphylococcus aureus, N = 3
From the text: as §1

[8] = test system: S. aureus (ATCC 6538) biofilm; settings: antibiotic alone
[9] = test system: MRSA USA400 inside murine macrophage cells (J774); assay: Intracellular MRSA infection model in J774 macrophage cells; settings: infected macrophage cells; vancomycin 2 μg/mL (4×MIC)

| Structure (SMILES) | cell killing in infected skin (CFU) ([1]; 10 mg/ml daptomycin alone, topical) | cell killing in infected skin (CFU) ([1]; 10 mg/ml daptomycin plus 10 min laser) | MIC [2] | eradication by synergistic therapy [3] | cellular uptake / membrane insertion with laser treatment vs untreated [4] | reduction of stationary-phase MRSA ([5]; 10 MIC with 5 min laser treatment) | reduction of stationary-phase MRSA ([5]; antibiotic alone at 100 MIC) | synergism between laser treatment and antibiotic [6] | MIC [7] | MRSA killed inside biofilm [8] | killing of intracellular MRSA 400 (CFU) [9] |
| --- | --- | --- | --- | --- | --- | --- | --- | --- | --- | --- | --- |
| CCCCCCCCCC(=O)N[C@@H](Cc1c[nH]c2ccccc12)C(=O)N[C@H](CC(N)=O)C(=O)N[C@@H](CC(=O)O)C(=O)N[C@@H]1C(=O)NCC(=O)N[C@@H](CCCN)C(=O)N[C@@H](CC(=O)O)C(=O)N[C@H](C)C(=O)N[C@@H](CC(=O)O)C(=O)NCC(=O)N[C@H](CO)C(=O)N[C@@H]([C@H](C)CC(=O)O)C(=O)N[C@@H](CC(=O)c2ccccc2N)C(=O)O[C@@H]1C [Daptomycin, daptomycin] | 81% | around 95% | 8 µg/mL (≈ 4.94 µM) | effective in eradicating | significantly more daptomycin uptake | more than 3.5 log | 1 log |  |  |  |  |
| CN[C@H](CC(C)C)C(=O)N[C@H]1C(=O)N[C@@H](CC(N)=O)C(=O)N[C@H]2C(=O)N[C@H]3C(=O)N[C@H](C(=O)N[C@H](C(=O)O)c4cc(O)cc(O)c4-c4cc3ccc4O)[C@H](O)c3ccc(c(Cl)c3)Oc3cc2cc(c3O[C@@H]2O[C@H](CO)[C@@H](O)[C@H](O)[C@H]2O[C@H]2C[C@](C)(N)[C@H](O)[C@H](C)O2)Oc2ccc(cc2Cl)[C@H]1O [Vancomycin, vancomycin] |  |  |  |  |  |  |  | no synergism | 256 µg/mL (≈ 177 µM) | 70% | no effect |
